Assay results reported in ChEMBL document CHEMBL1201861, “Genomics of Drug Sensitity in Cancer screening data, Wellcome Trust Sanger Institute”.

Assays:
Assay in all cases: cells
Format in all cases: functional, cell-based
769-P = details: Homo sapiens
Description: SANGER: Inhibition of human 769-P cell growth in a cell viability assay.

MDA-MB-231 = details: Homo sapiens
Description: SANGER: Inhibition of human MDA-MB-231 cell growth in a cell viability assay.

639-V = details: Homo sapiens;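 further: growth inhibition of 639-V cells, read out with a cell viability assay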
Description: SANGER: Inhibition of human 639-V cell growth in a cell viability assay.

OE19 = details: Homo sapiens;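 further: growth inhibition of OE19 cells, measured through a cell viability read-out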
Description: SANGER: Inhibition of human OE19 cell growth in a cell viability assay.

VM-CUB-1 = details: Homo sapiens;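 further: cell viability assay measuring growth inhibition of the human VM-CUB-1 cell line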
Description: SANGER: Inhibition of human VM-CUB-1 cell growth in a cell viability assay.

SJRH30 = details: Homo sapiens;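 further: growth inhibition of human SJRH30 cells, read out with a cell viability assay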
Description: SANGER: Inhibition of human SJRH30 cell growth in a cell viability assay.

KYSE-70 cell line = details: Homo sapiens;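 further: cell viability assay read-out, with IC50 expressing suppression of KYSE-70 cell growth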
Description: SANGER: Inhibition of human KYSE-70 cell growth in a cell viability assay.

BEN = details: Homo sapiens;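 further: growth inhibition of the BEN cell line, read out with a cell viability assay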
Description: SANGER: Inhibition of human BEN cell growth in a cell viability assay.

NCI-H1573 = details: Homo sapiens;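 further: growth inhibition of NCI-H1573 cells, read out with a cell viability assay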
Description: SANGER: Inhibition of human NCI-H1573 cell growth in a cell viability assay.

EW-22 = details: Homo sapiens;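 further: growth inhibition of the EW-22 cell line, measured with a cell viability readout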
Description: SANGER: Inhibition of human EW-22 cell growth in a cell viability assay.

HCC1419 = details: Homo sapiens;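 further: growth inhibition of human HCC1419 cells, read out as cell viability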
Description: SANGER: Inhibition of human HCC1419 cell growth in a cell viability assay.

Calu-3 = details: Homo sapiens;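 further: growth inhibition of human Calu-3 cells, determined with a cell viability assay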
Description: SANGER: Inhibition of human Calu-3 cell growth in a cell viability assay.

KYSE-410 = details: Homo sapiens;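 further: growth inhibition of KYSE-410 cells, measured through a cell viability readout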
Description: SANGER: Inhibition of human KYSE-410 cell growth in a cell viability assay.

FaDu = details: Homo sapiens;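 further: cell viability readout of growth inhibition in FaDu cells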
Description: SANGER: Inhibition of human FADU cell growth in a cell viability assay.

COLO-678 = details: Homo sapiens
Description: SANGER: Inhibition of human COLO-678 cell growth in a cell viability assay.

CHP-212 = details: Homo sapiens
Description: SANGER: Inhibition of human CHP-212 cell growth in a cell viability assay.

SW13 = details: Homo sapiens;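 further: IC50 is inhibition of SW13 cell growth, read out with a cell viability assay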
Description: SANGER: Inhibition of human SW13 cell growth in a cell viability assay.

PFSK-1 = details: Homo sapiens;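 further: cell viability assay measuring how strongly compounds suppress growth of human PFSK-1 cells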
Description: SANGER: Inhibition of human PFSK-1 cell growth in a cell viability assay.

ASPC1 = details: Homo sapiens;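 further: growth inhibition of AsPC-1 cells, read out with a cell viability assay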
Description: SANGER: Inhibition of human AsPC-1 cell growth in a cell viability assay.

SW1710 = details: Homo sapiens;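 further: growth inhibition of SW1710 cells, determined with a cell viability assay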
Description: SANGER: Inhibition of human SW1710 cell growth in a cell viability assay.

NCI-H2452 = details: Homo sapiens;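 further: growth inhibition of NCI-H2452 cells, read out with a cell viability assay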
Description: SANGER: Inhibition of human NCI-H2452 cell growth in a cell viability assay.

SCC-9 = details: Homo sapiens;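 further: Read-out is a cell viability assay, with values giving inhibition of cell growth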
Description: SANGER: Inhibition of human SCC-9 cell growth in a cell viability assay.

SW780 = details: Homo sapiens;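 further: growth inhibition of the cells, read out with a cell viability assay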
Description: SANGER: Inhibition of human SW780 cell growth in a cell viability assay.

Panc1005 = details: Homo sapiens;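 further: growth inhibition of human PANC-10-05 cells, measured by a cell viability assay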
Description: SANGER: Inhibition of human PANC-10-05 cell growth in a cell viability assay.

HTC-C3 = details: Homo sapiens;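 further: inhibition of cell growth, read out with a cell viability assay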
Description: SANGER: Inhibition of human HTC-C3 cell growth in a cell viability assay.

Daoy = details: Homo sapiens;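 further: daoy cell growth inhibition, read out as cell viability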
Description: SANGER: Inhibition of human Daoy cell growth in a cell viability assay.

BT-20 = details: Homo sapiens;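 further: cell viability assay measuring suppression of growth in human BT-20 cells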
Description: SANGER: Inhibition of human BT-20 cell growth in a cell viability assay.

HCC1569 = details: Homo sapiens;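 further: growth inhibition of human HCC1569 cells, read out with a cell viability assay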
Description: SANGER: Inhibition of human HCC1569 cell growth in a cell viability assay.

NCI-H1693 = details: Homo sapiens;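 further: growth inhibition of the human cell line, read out with a cell viability assay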
Description: SANGER: Inhibition of human NCI-H1693 cell growth in a cell viability assay.

CWR22R = details: Homo sapiens, 22Rv1;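 further: growth inhibition of 22Rv1 cells, read out with a cell viability assay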
Description: SANGER: Inhibition of human 22RV1 cell growth in a cell viability assay.

UACC-893 = details: Homo sapiens
Description: SANGER: Inhibition of human UACC-893 cell growth in a cell viability assay.

SNU-449 = details: Homo sapiens
Description: SANGER: Inhibition of human SNU-449 cell growth in a cell viability assay.

HPAF-II = details: Homo sapiens;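 further: growth inhibition of HPAF-II cells, read out with a cell viability assay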
Description: SANGER: Inhibition of human HPAF-II cell growth in a cell viability assay.

NCI-H1993 = details: Homo sapiens;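 further: growth inhibition of the cancer cell line, assessed with a cell viability assay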
Description: SANGER: Inhibition of human NCI-H1993 cell growth in a cell viability assay.

SW1417 = details: Homo sapiens;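 further: growth inhibition of human SW1417 cells, read out with a cell viability assay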
Description: SANGER: Inhibition of human SW1417 cell growth in a cell viability assay.

CP50-MEL-B = details: Homo sapiens;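 further: growth inhibition of the human cell line, measured with a cell viability read-out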
Description: SANGER: Inhibition of human CP50-MEL-B cell growth in a cell viability assay.

8505C = details: Homo sapiens
Description: SANGER: Inhibition of human 8505C cell growth in a cell viability assay.

NCI-H2228 = details: Homo sapiens;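 further: growth inhibition of human NCI-H2228 cells, read out by a cell viability assay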
Description: SANGER: Inhibition of human NCI-H2228 cell growth in a cell viability assay.

HO-1-N-1 = details: Homo sapiens;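 further: growth inhibition of human HO-1-N-1 cells, read out with a cell viability assay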
Description: SANGER: Inhibition of human HO-1-N-1 cell growth in a cell viability assay.

SW1990 = details: Homo sapiens;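 further: cell growth inhibition determined with a viability assay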
Description: SANGER: Inhibition of human SW1990 cell growth in a cell viability assay.

SAS = details: Homo sapiens;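 further: growth inhibition of SAS cells, read out with a cell viability assay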
Description: SANGER: Inhibition of human SAS cell growth in a cell viability assay.

KYSE-450 = details: Homo sapiens;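 further: cell growth inhibition measured by a viability assay in human KYSE-450 cells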
Description: SANGER: Inhibition of human KYSE-450 cell growth in a cell viability assay.

TGW = details: Homo sapiens;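 further: growth inhibition of human TGW cells, read out with a cell viability assay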
Description: SANGER: Inhibition of human TGW cell growth in a cell viability assay.

VMRC-RCZ = details: Homo sapiens;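 further: growth inhibition measured with a cell viability assay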
Description: SANGER: Inhibition of human VMRC-RCZ cell growth in a cell viability assay.

KU-19-19 = details: Homo sapiens
Description: SANGER: Inhibition of human KU-19-19 cell growth in a cell viability assay.

MCF7 = details: Homo sapiens;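 further: growth inhibition of human MCF7 cells, read out with a cell viability assay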
Description: SANGER: Inhibition of human MCF7 cell growth in a cell viability assay.

SW756 = details: Homo sapiens;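 further: growth inhibition of human SW756 cells, read out with a cell viability assay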
Description: SANGER: Inhibition of human SW756 cell growth in a cell viability assay.

MOLT-13 = details: Homo sapiens;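 further: IC50 for suppression of MOLT-13 cell growth, read out with a cell viability assay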
Description: SANGER: Inhibition of human MOLT-13 cell growth in a cell viability assay.

Work on `O=c1cc(N2CCOCC2)oc2c(-c3cccc4c3sc3ccccc34)cccc12` yielded an IC50 (769-P) greater than 2 µM, an IC50 (MDA-MB-231) greater than 2 µM and an IC50 (639-V) of 1.44 µM. The IC50 (OE19) was greater than 2 µM, the IC50 (VM-CUB-1) was greater than 2 µM and the IC50 (SJRH30) was greater than 2 µM. For the same molecule, the IC50 (KYSE-70 cell line) was greater than 2 µM, the IC50 (BEN) was greater than 2 µM and the IC50 (NCI-H1573) was greater than 2 µM. For the same molecule, the IC50 (EW-22) was greater than 2 µM, the IC50 (HCC1419) was greater than 2 µM and the IC50 (Calu-3) was greater than 2 µM. For the same molecule, the IC50 (KYSE-410) was greater than 2 µM, the IC50 (FaDu) was greater than 2 µM and the IC50 (COLO-678) was greater than 2 µM. The IC50 (CHP-212) was greater than 2 µM, the IC50 (SW13) was greater than 2 µM and the IC50 (PFSK-1) was greater than 2 µM. It also gave an IC50 (ASPC1) greater than 2 µM, an IC50 (SW1710) greater than 2 µM and an IC50 (NCI-H2452) greater than 2 µM. For the same molecule, the IC50 (SCC-9) was greater than 2 µM, the IC50 (SW780) was greater than 2 µM and the IC50 (Panc1005) was greater than 2 µM. It also gave an IC50 (HTC-C3) greater than 2 µM, an IC50 (Daoy) greater than 2 µM and an IC50 (BT-20) greater than 2 µM. It also gave an IC50 (HCC1569) greater than 2 µM, an IC50 (NCI-H1693) greater than 2 µM and an IC50 (CWR22R) greater than 2 µM. It also gave an IC50 (UACC-893) greater than 2 µM, an IC50 (SNU-449) greater than 2 µM and an IC50 (HPAF-II) greater than 2 µM. For the same molecule, the IC50 (NCI-H1993) was greater than 2 µM, the IC50 (SW1417) was greater than 2 µM and the IC50 (CP50-MEL-B) was greater than 2 µM. For the same molecule, the IC50 (8505C) was greater than 2 µM, the IC50 (NCI-H2228) was greater than 2 µM and the IC50 (HO-1-N-1) was greater than 2 µM. It also gave an IC50 (SW1990) greater than 2 µM, an IC50 (SAS) greater than 2 µM and an IC50 (KYSE-450) greater than 2 µM. For the same molecule, the IC50 (TGW) was greater than 2 µM, the IC50 (VMRC-RCZ) was greater than 2 µM and the IC50 (KU-19-19) was greater than 2 µM. It also gave an IC50 (MCF7) greater than 2 µM and an IC50 (SW756) greater than 2 µM.

`NC(=O)c1ncn([C@@H]2O[C@H](COP(=O)(O)O)[C@@H](O)[C@H]2O)c1N` showed an IC50 (769-P) greater than 2000 µM, an IC50 (MDA-MB-231) greater than 2000 µM and an IC50 (639-V) greater than 2000 µM. The IC50 (OE19) was greater than 2000 µM, the IC50 (VM-CUB-1) was 673 µM and the IC50 (KYSE-70 cell line) was greater than 2000 µM. For the same molecule, the IC50 (BEN) was greater than 2000 µM, the IC50 (NCI-H1573) was 353 µM and the IC50 (EW-22) was greater than 2000 µM. The IC50 (HCC1419) was greater than 2000 µM, the IC50 (Calu-3) was 1920 µM and the IC50 (KYSE-410) was greater than 2000 µM. For the same molecule, the IC50 (FaDu) was 1060 µM, the IC50 (COLO-678) was greater than 2000 µM and the IC50 (SW13) was greater than 2000 µM. For the same molecule, the IC50 (PFSK-1) was greater than 2000 µM, the IC50 (ASPC1) was 1330 µM and the IC50 (SW1710) was greater than 2000 µM. For the same molecule, the IC50 (NCI-H2452) was greater than 2000 µM, the IC50 (SCC-9) was greater than 2000 µM and the IC50 (SW780) was greater than 2000 µM. It also gave an IC50 (Panc1005) greater than 2000 µM, an IC50 (HTC-C3) of 252 µM and an IC50 (Daoy) of 1510 µM. For the same molecule, the IC50 (BT-20) was 1400 µM, the IC50 (HCC1569) was 994 µM and the IC50 (NCI-H1693) was greater than 2000 µM. The IC50 (CWR22R) was greater than 2000 µM, the IC50 (UACC-893) was greater than 2000 µM and the IC50 (SNU-449) was greater than 2000 µM. It also gave an IC50 (HPAF-II) greater than 2000 µM, an IC50 (SW1417) greater than 2000 µM and an IC50 (CP50-MEL-B) greater than 2000 µM. For the same molecule, the IC50 (8505C) was greater than 2000 µM, the IC50 (NCI-H2228) was 1950 µM and the IC50 (HO-1-N-1) was 793 µM. It also gave an IC50 (SW1990) of 1120 µM, an IC50 (SAS) of 746 µM and an IC50 (KYSE-450) of 1300 µM. The IC50 (VMRC-RCZ) was greater than 2000 µM, the IC50 (KU-19-19) was greater than 2000 µM and the IC50 (MCF7) was 901 µM. It also gave an IC50 (SW756) greater than 2000 µM.

For `COc1cc(Nc2c(C#N)cnc3cc(OCCCN4CCN(C)CC4)c(OC)cc23)c(Cl)cc1Cl` [BOSUTINIB], the IC50 (769-P) was 1.7 µM, the IC50 (MDA-MB-231) was greater than 2 µM and the IC50 (639-V) was greater than 2 µM. It also gave an IC50 (OE19) greater than 2 µM, an IC50 (VM-CUB-1) greater than 2 µM and an IC50 (KYSE-70 cell line) greater than 2 µM. It also gave an IC50 (BEN) greater than 2 µM, an IC50 (NCI-H1573) greater than 2 µM and an IC50 (EW-22) greater than 2 µM. The IC50 (HCC1419) was greater than 2 µM, the IC50 (Calu-3) was greater than 2 µM and the IC50 (KYSE-410) was greater than 2 µM. It also gave an IC50 (FaDu) greater than 2 µM, an IC50 (COLO-678) greater than 2 µM and an IC50 (CHP-212) greater than 2 µM. It also gave an IC50 (SW13) of 0.738 µM, an IC50 (PFSK-1) greater than 2 µM and an IC50 (ASPC1) greater than 2 µM. The IC50 (SW1710) was greater than 2 µM, the IC50 (NCI-H2452) was greater than 2 µM and the IC50 (SCC-9) was greater than 2 µM. It also gave an IC50 (SW780) greater than 2 µM, an IC50 (Panc1005) greater than 2 µM and an IC50 (HTC-C3) greater than 2 µM. For the same molecule, the IC50 (Daoy) was greater than 2 µM, the IC50 (BT-20) was greater than 2 µM and the IC50 (HCC1569) was greater than 2 µM. The IC50 (NCI-H1693) was 2 µM, the IC50 (CWR22R) was greater than 2 µM and the IC50 (UACC-893) was greater than 2 µM. For the same molecule, the IC50 (SNU-449) was greater than 2 µM, the IC50 (HPAF-II) was greater than 2 µM and the IC50 (NCI-H1993) was greater than 2 µM. For the same molecule, the IC50 (SW1417) was greater than 2 µM, the IC50 (CP50-MEL-B) was greater than 2 µM and the IC50 (8505C) was greater than 2 µM. For the same molecule, the IC50 (NCI-H2228) was greater than 2 µM, the IC50 (HO-1-N-1) was 1.26 µM and the IC50 (SW1990) was greater than 2 µM. The IC50 (SAS) was greater than 2 µM, the IC50 (KYSE-450) was greater than 2 µM and the IC50 (VMRC-RCZ) was greater than 2 µM. The IC50 (KU-19-19) was greater than 2 µM, the IC50 (MCF7) was greater than 2 µM and the IC50 (SW756) was 0.14 µM. The IC50 (MOLT-13) was greater than 2 µM.

Molecule `CC[C@@]1(O)C(=O)OCc2c1cc1n(c2=O)Cc2cc3ccccc3nc2-1` [CAMPTOTHECIN] has an IC50 (769-P) of 0.0253 µM, an IC50 (639-V) of 0.000171 µM and an IC50 (OE19) greater than 0.1 µM. It also gave an IC50 (VM-CUB-1) of 0.00221 µM, an IC50 (KYSE-70 cell line) of 0.0921 µM and an IC50 (EW-22) of 0.000557 µM. It also gave an IC50 (HCC1419) greater than 0.1 µM, an IC50 (Calu-3) of 0.0328 µM and an IC50 (KYSE-410) of 0.0781 µM. For the same molecule, the IC50 (FaDu) was 0.000539 µM, the IC50 (COLO-678) was greater than 0.1 µM and the IC50 (CHP-212) was 0.00103 µM. The IC50 (SW13) was 0.00299 µM, the IC50 (PFSK-1) was 0.026 µM and the IC50 (SW1710) was 0.0336 µM. For the same molecule, the IC50 (NCI-H2452) was 0.0909 µM, the IC50 (SCC-9) was 0.0332 µM and the IC50 (SW780) was 0.0258 µM. For the same molecule, the IC50 (Panc1005) was 0.0197 µM, the IC50 (HTC-C3) was 0.0315 µM and the IC50 (Daoy) was 0.000481 µM. It also gave an IC50 (BT-20) of 0.026 µM, an IC50 (NCI-H1693) of 0.0267 µM and an IC50 (CWR22R) of 0.00931 µM. It also gave an IC50 (HPAF-II) of 0.0551 µM, an IC50 (NCI-H1993) greater than 0.1 µM and an IC50 (SW1417) of 0.0527 µM. For the same molecule, the IC50 (CP50-MEL-B) was 0.0721 µM, the IC50 (8505C) was 0.0033 µM and the IC50 (NCI-H2228) was 0.049 µM. It also gave an IC50 (HO-1-N-1) of 0.000838 µM, an IC50 (SW1990) of 0.0379 µM and an IC50 (SAS) of 0.00124 µM. It also gave an IC50 (KYSE-450) of 0.0237 µM, an IC50 (VMRC-RCZ) of 0.0473 µM and an IC50 (KU-19-19) of 0.022 µM. The IC50 (MCF7) was 0.00643 µM, the IC50 (SW756) was 0.00421 µM and the IC50 (MOLT-13) was 0.00179 µM.
